In experiment [1] the test system is F21T_hTelo (DNA, G4) GGGTTAGGGTTAGGGTTAGGG
Briefly: FRET melting. As to conditions: K+ 10 mM (potassium phosphate); 10 mM potassium phosphate pH 7; 0.8 µM compound, 0.4 µM DNA, no competitor dsDNA.

For experiment [2], the system named is F21T_c-kit1 (DNA, G4) GGGAGGGCGCTGGGAGGAGGG
Briefly: FRET melting. As to conditions: K+ 10 mM (potassium phosphate); 10 mM potassium phosphate pH 7; 0.8 µM compound, 0.4 µM DNA, no competitor dsDNA.

The subject of experiment [3] is F21T_k-ras (DNA, G4) GGGCGGTGTGGGAATAGGGAA
Briefly: FRET melting. As to conditions: K+ 10 mM (potassium phosphate); 10 mM potassium phosphate pH 7; 0.8 µM compound, 0.4 µM DNA, no competitor dsDNA.

For experiment [4], the system named is 22_hTelo (DNA, G4) AGGGTTAGGGTTAGGGTTAGGG
Nature of the experiment: fluorescent indicator displacement. As to conditions: K+ 40 mM (30 mM KCl + potassium phosphate); 10 mM potassium phosphate pH 7, 25 °C; 0.5 µM thiazole orange displaced, 0.25 µM DNA.

Experiment [5] deals with 22_c-kit1 (DNA, G4) AGGGAGGGCGCTGGGAGGAGGG
Briefly: fluorescent indicator displacement. As to conditions: K+ 40 mM (30 mM KCl + potassium phosphate); 10 mM potassium phosphate pH 7, 25 °C; 0.5 µM thiazole orange displaced, 0.25 µM DNA.

The test system of experiment [6] is 21_c-kit2 (DNA, G4) CGGGCGGGCGCGAGGGAGGGG
Nature of the experiment: fluorescent indicator displacement. As to conditions: K+ 40 mM (30 mM KCl + potassium phosphate); 10 mM potassium phosphate pH 7, 25 °C; 0.5 µM thiazole orange displaced, 0.25 µM DNA.

For experiment [7], the system named is 22_c-myc (DNA, G4) TGAGGGTGGGTAGGGTGGGTAA
Nature of the experiment: fluorescent indicator displacement. As to conditions: K+ 40 mM (30 mM KCl + potassium phosphate); 10 mM potassium phosphate pH 7, 25 °C; 0.5 µM thiazole orange displaced, 0.25 µM DNA.

The subject of experiment [8] is 22_k-ras (DNA, G4) AGGGCGGTGTGGGAATAGGGAA
Briefly: fluorescent indicator displacement. As to conditions: K+ 40 mM (30 mM KCl + potassium phosphate); 10 mM potassium phosphate pH 7, 25 °C; 0.5 µM thiazole orange displaced, 0.25 µM DNA.

For experiment [9], the system named is 26_ds (DNA, duplex) CAATCGGATCGAATTCGATCCGATTG
Briefly: fluorescent indicator displacement. As to conditions: K+ 40 mM (30 mM KCl + potassium phosphate); 10 mM potassium phosphate pH 7, 25 °C; 0.5 µM thiazole orange displaced, 0.25 µM DNA.

Experiment [10] has as its system F20T_c-kit2 (DNA, G4) GGGCGGGCGCGAGGGAGGGG
Nature of the experiment: FRET melting. As to conditions: K+ 10 mM (potassium phosphate); 10 mM potassium phosphate pH 7; 0.8 µM compound, 0.4 µM DNA, no competitor dsDNA.

Experiment [11] has as its system F21T_c-myc (DNA, G4) GAGGGTGGGTAGGGTGGGTAA
Briefly: FRET melting. As to conditions: K+ 10 mM (potassium phosphate); 10 mM potassium phosphate pH 7; 0.8 µM compound, 0.4 µM DNA, no competitor dsDNA.

We go through 4 compounds from publication PMC10078150 (2023).

Consider `C(=N\[C@@H](COCc1ccc(-c2ccccn2)nc1)c1ccccc1)/c1ccc(OCc2cn(Cc3ccccc3)nn2)cn1.C(=N\[C@@H](COCc1ccc(-c2ccccn2)nc1)c1ccccc1)/c1ccc(OCc2cn(Cc3ccccc3)nn2)cn1.C(=N\[C@@H](COCc1ccc(-c2ccccn2)nc1)c1ccccc1)/c1ccc(OCc2cn(Cc3ccccc3)nn2)cn1.[Fe+2].[Fe+2]`, for which the ΔTm (usually the shift of the melting midpoint relative to a reference) in experiment [1] is 24.6 °C; in experiment [2] it was 23.7 °C; in experiment [3], 21.0 °C. For the same compound, the DC50 was 1060 ± 30 nM in [4]; 870 ± 20 nM in [5]; 850 ± 50 nM in experiment [6]; 400 ± 30 nM in [7]; 450 ± 20 nM in [8]; 3900 ± 200 nM in experiment [9].
As for `C(=N\[C@@H](COCc1ccc(-c2ccccn2)nc1)c1ccccc1)/c1ccccn1.C(=N\[C@@H](COCc1ccc(-c2ccccn2)nc1)c1ccccc1)/c1ccccn1.C(=N\[C@@H](COCc1ccc(-c2ccccn2)nc1)c1ccccc1)/c1ccccn1.[Fe+2].[Fe+2]`, the ΔTm in experiment [2] came out at 27.2 °C. In addition, the DC50 in [4] stood at 1950 ± 90 nM; in [5], 1410 ± 30 nM; in experiment [6] it was 1260 ± 60 nM; in experiment [7], 800 ± 40 nM; in experiment [8], 650 ± 30 nM; in experiment [9], 5300 ± 300 nM.
Turning to `C(=N\[C@H](COCc1ccc(-c2ccccn2)nc1)c1ccccc1)/c1ccc(OCc2cn(Cc3ccccc3)nn2)cn1.C(=N\[C@H](COCc1ccc(-c2ccccn2)nc1)c1ccccc1)/c1ccc(OCc2cn(Cc3ccccc3)nn2)cn1.C(=N\[C@H](COCc1ccc(-c2ccccn2)nc1)c1ccccc1)/c1ccc(OCc2cn(Cc3ccccc3)nn2)cn1.[Fe+2].[Fe+2]`, the ΔTm turned out to be 11.9 °C in [10], 5.2 °C in experiment [11] and 41.8 °C in experiment [3]. Besides, the DC50 in experiment [4] was 1050 ± 50 nM; in [5] it was 790 ± 30 nM; in experiment [6], 780 ± 50 nM; in [7], 300 ± 30 nM; in experiment [8] it was 270 ± 10 nM; in [9], 2600 ± 100 nM.
Take `C(=N\[C@H](COCc1ccc(-c2ccccn2)nc1)c1ccccc1)/c1ccccn1.C(=N\[C@H](COCc1ccc(-c2ccccn2)nc1)c1ccccc1)/c1ccccn1.C(=N\[C@H](COCc1ccc(-c2ccccn2)nc1)c1ccccc1)/c1ccccn1.[Fe+2].[Fe+2]`: the ΔTm came out at 27.6 °C in experiment [1], 19.8 °C in [10] and 11.7 °C in experiment [11]. Besides, the DC50 came to 2200 ± 100 nM in experiment [4]; 960 ± 40 nM in [5]; 1050 ± 40 nM in [6]; 530 ± 20 nM in experiment [7]; 420 ± 20 nM in [8]; 3800 ± 200 nM in [9].
